Tests used:
HeLa cells [1] = experiment: Cell viability by MTS assay; assay type: cell-based; conditions: 10 μg/mL, FIG. 10
Method: HeLa cells were used as a model cancer cell for cytotoxicity evaluation. Trypsinized HeLa cells were seeded onto 48-well tissue culture polystyrene (TCPS) plates at 10,000 cells cm^−2. Cells were then cultured in Dulbecco's Modified Eagle's Medium (DMEM) supplemented with FBS, 100 U/mL penicillin, 2 mM L-glutamine, and 0.1 mg/mL streptomycin for 24 h to allow adhesion. To evaluate the cytotoxicity of PEG-Fu-DiTT polymersomes, empty samples without loaded drugs were prepared, dialyzed against phosphate-buffered saline (PBS) for 2 days, and lyophilized for 3 days. The dried polymersomes were then incubated with HeLa cells at concentrations of 0.1, 0.5, 1.0 and 2.0 mg/mL for 3 days. Wells seeded with the same HeLa cell density but without added polymersomes were used as positive controls. The relative cell densities in each group were determined by MTS assay (CellTiter 96 Aqueous One Solution, Promega, Madison, Wis.) by comparing the optical density (OD) value to that of positive controls (which were set at 100% cell density). To evaluate the cancer killing effect, similar cell culture procedures were used by adding DOX-loaded polymersomes or free drugs at concentrations of 0.01, 0.1, 0.5, 1, 5, 10 and 50 μg/mL.

HeLa cells [2] = experiment: Cellular uptake by DOX fluorescence imaging; assay type: cell-based; conditions: 10 μg/mL
Method: HeLa cells were co-cultured with DOX-loaded polymersomes in DMEM at a drug concentration of 10 μg/mL, as described in Example 6. At time points of 1, 2, 4 hours, the culture medium was removed and cells were washed with PBS three times and then fixed in 4% paraformaldehyde. After 10 min, paraformaldehyde was removed and cells were washed three times with PBS then stained with DAPI (4′,6-diamidino-2-phenylindole) for 2 min. DOX fluorescence from polymersomes and DAPI fluorescence from cellular nuclei were visualized and photographed by Axiovert 25 Zeiss light microscope. DOX fluorescence from polymersomes appeared red, and DAPI fluorescence from cellular nuclei appeared blue.
Cellular uptake of DOX-PS particles were investigated through imaging of DOX fluorescence after 1, 3 and 5 hours of co-culture with HeLa cells. […] The first, second, and third rows correspond to incubation times of 1, 3, and 5 hours respectively.

COc1cccc2c1C(=O)c1c(O)c3c(c(O)c1C2=O)C[C@@](O)(C(=O)CO)C[C@@H]3O[C@H]1C[C@H](N)[C@H](O)[C@H](C)O1 [unencapsulated DOX, doxorubicin]
effect on cancer cell viability (HeLa cells [1]): inhibition effect | DOX fluorescence in cells (HeLa cells [2]; 1 hour): red fluorescence | DOX fluorescence in cells (HeLa cells [2]; 3 hour): slight increase in intensity | DOX fluorescence in cells (HeLa cells [2]; 5 hour): slight increase in intensity

— patent US11040009B2, “Expansile crosslinked polymersome for ph-sensitive delivery of anticancer drugs” (Mayo Foundation for Medical Education and Research, priority 2016, dated 2021)
